Experimental data as given in US20250100982A1, “PLEUROMUTILIN DERIVATIVE WITH THIAZOLE SIDE CHAIN AND PREPARATION AND APPLICATION” (SOUTH CHINA AGRICULTURAL UNIVERSITY, priority 2023, published 2025).
Converted amounts (≈) assume the structure as drawn.

Columns and labels:
[1] = test system: Mycoplasma gallisepticum 352-tiamulin resistant strain; assay: microbe, parasite or virus in culture; format: cell-based; conditions: for MIC, Mycoplasma gallisepticum 352-tiamulin resistant strain: broth dilution, 37° C.
Description: (§1) The broth dilution method was adopted in the experiment. The tiamulin was selected as the control drug in the experiment.
(§2) The strains used in the experiment were Mycoplasma gallisepticum 352, 352-tiamulin resistant strain, and M47.
(§3) Preparation of the target compound stock solution: the compound was dissolved with 1 mL of DMSO, then fixed in volume with a 250 mL volumetric flask and fully shaken to obtain the stock solution (5120 μg/mL).
(§4) The stock solution was diluted in petri dishes with a doubling dilution method. Each petri dish contained 2 ml of medical solution, and the medical solution was diluted to 20 ml, so that the final concentrations of the compound were […] respectively.
(§5) 15 sterile 2 mL EP tubes were placed in each row. 0.9 mL of liquid medium was added to the first tube, and 0.5 mL of liquid medium was added to the other tubes respectively. 0.1 mL of prepared medical solution was added to the first tube and fully mixed. Then, 0.5 mL of medical solution was added to the second tube, and so on. Finally, 0.5 mL of medical solution was absorbed and discarded.

[2] = test system: clinical S. aureus 144; assay: In vitro antibacterial experiment, broth dilution MIC; format: cell-based, Staphylococcus aureus; conditions: 37° C., 24 h, clinical isolate
From the text: (§6) A broth dilution method was used in the experiment. Tiamulin was selected as a control drug in the experiment. The tiamulin is a pleuromutilin antibiotic as well as one of the top ten veterinary antibiotics in the world.
(§7) The strains used in the experiment were methicillin-resistant Staphylococcus aureus ATCC43300, Staphylococcus aureus ATCC29213, clinical Staphylococcus aureus AD3, clinical S. aureus 144, Mycoplasma gallisepticum 352, 352 tiamulin induced drug-resistant bacteria and clinical isolates M47.
(§8) Preparation of target compound stock solution: 6.4 mg of target compound was accurately weighed, placed in a 5 mL volumetric flask, and dissolved with 0.25 mL of DMSO and 0.25 mL of Tween 80; then 4.5 mL of distilled water was added for fixing the volume; the solution was fully shaken to obtain a stock solution (1280 μg/mL); and the stock solution was filtered with a 0.22 μm filter membrane and sterilized, subpackaged into small tubes, and stored at −20° C. The control drug tiamulin was also prepared according to the above method.
(§9) Preparation of bacterial solution: the strains that were well preserved at −20° C. were taken out and inoculated on a new MH plate, and after culture at 37° C. for 24 h, a single colony was selected and inoculated in MH medium for culturing again for 24 h. The selected single colony was transferred to sterile normal saline and the turbidity was adjusted to 0.6 McF. At this moment, the concentration of the bacterial solution was 10^6 CFU/mL.
(§10) Preparation of MIC plate: a sterile 96-well plate was taken; 180 μL of MH broth medium was added to the first well, 100 μL of MH broth medium was added to the second well to the 12th well; 20 μL of target compound solution with a concentration of 1280 μg/mL was added to the first well; after even mixing, 100 μL of solution was added to the second well, and mixed well; 100 μL of solution was absorbed to the third well, and so on; and 100 μL of solution was absorbed to the 12th well and discarded. At this moment, the drug concentrations in the wells were: 128, 64, 32, 16, 8, 4, 2, 1, 0.5, 0.25, 0.125, and 0.06 μg/mL, and three parallel groups were made for the drugs of the concentrations.
(§11) Inoculation of bacterial solution: 100 μL of bacterial solution was added into the first well to the 12th well, so that the final bacterial solution concentration in each well was about 5×10^5 CFU/mL, and the drug concentrations in the first well to the 12th well were 64, 32, 16, 8, 4, 2, 1, 0.5, 0.25, 0.125, 0.06 and 0.03 μg/mL respectively. […] When a single jumping hole occurred in the microbroth dilution method, the maximum drug concentration for inhibiting bacteria was recorded, and the experiment shall be repeated if multiple jumping holes occurred.

[3] = test system: Mycoplasma gallisepticum M47; assay: In vitro inhibition experiment of mycoplasma activity, broth dilution MIC; format: cell-based; conditions: clinical isolate; for MIC, Mycoplasma gallisepticum M47: 37° C.
Description: as §1, §2, §3, §4, §5

[4] = test system: Mycoplasma gallisepticum 352; assay: as above; format: cell-based; conditions: for MIC, Mycoplasma gallisepticum 352: 37° C.
Description: as §1, §2, §3, §4, §5

[5] = test system: methicillin-resistant Staphylococcus aureus ATCC43300; assay: microbe, parasite or virus in culture; format: cell-based; conditions: 24 h; for MIC, MRSA ATCC 43300: broth dilution, 37° C.
From the text: as §6, §7, §8, §9, §10, §11

[6] = test system: clinical Staphylococcus aureus AD3; assay: In vitro antibacterial experiment, broth dilution MIC; format: cell-based; conditions: 37° C., 24 h, clinical isolate
From the text: as §6, §7, §8, §9, §10, §11

[7] = test system: Staphylococcus aureus ATCC29213; assay: as above; format: cell-based; conditions: 24 h; for MIC, S. aureus ATCC 29213: 37° C.
From the text: as §6, §7, §8, §9, §10, §11

Compound: C=CC1(C)CC(OC(=O)CSc2ncc(NC(=O)C3CCC3)s2)C2(C)C(C)CCC3(CCC(=O)C32)C(C)C1O (stereo not drawn) [Compound 2]
- MIC, Mycoplasma gallisepticum 352-tiamulin resistant strain [1]: 0.25 µg/mL (≈ 0.435 µM)
- MIC, S. aureus 144 [2]: 0.25 µg/mL (≈ 0.435 µM)
- MIC, Mycoplasma gallisepticum M47 [3]: 0.5 µg/mL (≈ 0.87 µM)
- MIC, Mycoplasma gallisepticum 352 [4]: 0.008 µg/mL (≈ 0.0139 µM)
- MIC, MRSA ATCC 43300 [5]: 0.0625 µg/mL (≈ 0.109 µM)
- MIC, S. aureus AD3 [6]: 0.125 µg/mL (≈ 0.217 µM)
- MIC, S. aureus ATCC 29213 [7]: 0.125 µg/mL (≈ 0.217 µM)

Compound: C=CC1(C)CC(OC(=O)CSc2ncc(NC(=O)C3CCCCC3)s2)C2(C)C(C)CCC3(CCC(=O)C32)C(C)C1O (stereo not drawn) [Compound 4]
- MIC, Mycoplasma gallisepticum 352-tiamulin resistant strain [1]: 0.25 µg/mL (≈ 0.415 µM)
- MIC, S. aureus 144 [2]: 0.0625 µg/mL (≈ 0.104 µM)
- MIC, Mycoplasma gallisepticum M47 [3]: 1 µg/mL (≈ 1.66 µM)
- MIC, Mycoplasma gallisepticum 352 [4]: 0.015 µg/mL (≈ 0.0249 µM)
- MIC, MRSA ATCC 43300 [5]: 0.125 µg/mL (≈ 0.207 µM)
- MIC, S. aureus AD3 [6]: 0.0625 µg/mL (≈ 0.104 µM)
- MIC, S. aureus ATCC 29213 [7]: 0.03125 µg/mL (≈ 0.0518 µM)

Compound: C=CC1(C)CC(OC(=O)CSc2ncc(NC(=O)COC(C)=O)s2)C2(C)C(C)CCC3(CCC(=O)C32)C(C)C1O (stereo not drawn) [Compound 10]
- MIC, Mycoplasma gallisepticum 352-tiamulin resistant strain [1]: 0.03 µg/mL (≈ 0.0506 µM)
- MIC, S. aureus 144 [2]: 0.0625 µg/mL (≈ 0.105 µM)
- MIC, Mycoplasma gallisepticum M47 [3]: 0.03 µg/mL (≈ 0.0506 µM)
- MIC, Mycoplasma gallisepticum 352 [4]: ≤0.004 µg/mL
- MIC, MRSA ATCC 43300 [5]: 0.0625 µg/mL (≈ 0.105 µM)
- MIC, S. aureus AD3 [6]: 0.125 µg/mL (≈ 0.211 µM)
- MIC, S. aureus ATCC 29213 [7]: 0.125 µg/mL (≈ 0.211 µM)

Compound: C=CC1(C)CC(OC(=O)CSc2ncc(NC(=O)C(C)(C)CC)s2)C2(C)C(C)CCC3(CCC(=O)C32)C(C)C1O (stereo not drawn) [Compound 18]
- MIC, Mycoplasma gallisepticum 352-tiamulin resistant strain [1]: 0.5 µg/mL (≈ 0.846 µM)
- MIC, S. aureus 144 [2]: 0.5 µg/mL (≈ 0.846 µM)
- MIC, Mycoplasma gallisepticum M47 [3]: 1 µg/mL (≈ 1.69 µM)
- MIC, Mycoplasma gallisepticum 352 [4]: 0.03 µg/mL (≈ 0.0508 µM)
- MIC, MRSA ATCC 43300 [5]: 0.25 µg/mL (≈ 0.423 µM)
- MIC, S. aureus AD3 [6]: 0.25 µg/mL (≈ 0.423 µM)
- MIC, S. aureus ATCC 29213 [7]: 0.25 µg/mL (≈ 0.423 µM)

Compound: C=CC1(C)CC(OC(=O)CSc2ncc(NC(=O)C(Cl)(Cl)Cl)s2)C2(C)C(C)CCC3(CCC(=O)C32)C(C)C1O (stereo not drawn) [Compound 23]
- MIC, Mycoplasma gallisepticum 352-tiamulin resistant strain [1]: 1 µg/mL (≈ 1.57 µM)
- MIC, S. aureus 144 [2]: 2 µg/mL (≈ 3.13 µM)
- MIC, Mycoplasma gallisepticum M47 [3]: 4 µg/mL (≈ 6.27 µM)
- MIC, Mycoplasma gallisepticum 352 [4]: 0.125 µg/mL (≈ 0.196 µM)
- MIC, MRSA ATCC 43300 [5]: 1 µg/mL (≈ 1.57 µM)
- MIC, S. aureus AD3 [6]: 1 µg/mL (≈ 1.57 µM)
- MIC, S. aureus ATCC 29213 [7]: 2 µg/mL (≈ 3.13 µM)

Compound: C=C[C@]1(C)C[C@@H](OC(=O)CSCCN(CC)CC)[C@]2(C)[C@H](C)CC[C@]3(CCC(=O)[C@H]32)[C@@H](C)[C@@H]1O [Tiamulin, reference compound]
- MIC ([1]; Mycoplasmoides gallisepticum, read-out: MIC, Mycoplasma gallisepticum 352-tiamulin resistant strain): 0.25 µg/mL (≈ 0.506 µM)
- MIC ([2]; Staphylococcus aureus): 1 µg/mL (≈ 2.03 µM)
- MIC ([3]; Mycoplasmoides gallisepticum, M47, 37° C.): 0.125 µg/mL (≈ 0.253 µM)
- MIC ([4]; Mycoplasmoides gallisepticum, 352, 37° C.): ≤ 0.004 µg/mL
- MIC ([5]; Staphylococcus aureus, ATCC 43300 / MRSA, read-out: MIC, MRSA ATCC 43300): 0.5 µg/mL (≈ 1.01 µM)
- MIC ([6]; Staphylococcus aureus, read-out: MIC, S. aureus AD3): 1 µg/mL (≈ 2.03 µM)
- MIC ([7]; Staphylococcus aureus, ATCC29213, 37° C., read-out: MIC, S. aureus ATCC 29213): 1 µg/mL (≈ 2.03 µM)
